Experimental data as given in paper PMC11329504, “Identification of novel small molecule-based strategies of COL7A1 upregulation and readthrough activity for the treatment of recessive dystrophic epidermolysis bullosa” (Scientific Reports, 2024).

Columns and labels:
[1] = test system: RDEB_L1 cells; test: RNAseq (HTPathwaySeq) transcriptomic profiling, GSEA; assay type: cell-based, human; conditions: 24 h, 20 ng/mL TGFβ2, compound 7 and 8 at the highest concentrations tested of 100 and 300 µM
Description: The […]®) analysis was conducted at […], Belgium) using samples provided by Almirall. A total of 376 cell lysate samples representing 4 biological replicates of 94 samples were provided to […] in four 96-well plates. On each 96-well plate, two empty wells were allocated to include […] reference samples. Samples from the same biological group were distributed over the different plates to not confound inter-plate variability with biological signal. […] The compounds were evaluated in RDEB_L1 cells in the presence of 20 ng/mL TGFβ2 to mimic RDEB physiology and in normal human keratinocytes with no TGFβ2 treatment. Cells were treated during 24 h. Controls for RDEB_L1 cells not treated with TGFβ2 and RDEB_L1 and NHK cells treated with DMSO in the absence of compounds were also included. The conditions of the assay were identical to those described for the Real-time quantitative RT-PCR (see above). For the […], over 460 M reads were generated for 376 samples of interest, resulting in about 1.22 M reads per sample on average. […] is based on a 3'-end library preparation method, and gene body read coverage is concentrated towards the 3'-end of the genes. For quality control, a selection of lysate samples was checked for gDNA contamination and RNA content using qPCR before library preparation. RNA samples were processed to generate RNA-sequencing libraries using […] procedure based on the QuantSeq (Lexogen) 3'-end library preparation workflow. The quality of a selection of samples was assessed with the 2100 Bioanalyzer instrument (Agilent). Libraries were quantified using qPCR and pooled for single-end sequencing on a NextSeq 500 (Illumina) according to […] standard operating procedure. Raw reads were mapped to the human genome (hg38) and gene expression was quantified based on the Ensembl transcriptome annotation (version 85) using […]. Raw counts were normalized using […]2 prior to differential gene expression analysis. For each cell line, samples were clustered based on log-transformed normalized counts using tSNE. A perplexity parameter of 35 and a maximum number of 1000 iterations were applied. Genes with more than 10 normalized counts in at least 3 samples were used as input. Analysis was run in R (v3.2) with a fixed seed. […] For each contrast, genes ranked by fold change were used as input. PCA was applied on the fold changes of each compound vs their associated vehicle using the 500 genes with the greatest variance. Arrows connect the different incremental dosages used on each compound to observe their differentiation patterns. Pathway enrichment and PCA were performed using R v.3.2. Pathway enrichment was analyzed with cluster profile package. The procedure followed for the cell treatments of RDEB-L1 and NHEK, was the same as that used in the RT-qPCR study. Cell lysis and sample preparation were conducted according to […] instructions: Plates of treated cells were centrifuged for 5 min at 600 g at 4 °C, and the medium was carefully removed to avoid disturbing the cells. Then, cells were washed in PBS, centrifuged and the PBS was removed again. […] After checking that cells were lysed, the samples were transferred to 96-well PCR plates, and then sealed and stored at -80 °C to be sent to […].

[2] = test system: total (truncated + full length) C7 in RDEB_L1 cells; test: AlphaLISA quantification of total C7 in RDEB_L1 cells; assay type: cell-based, human; conditions: 20 ng/mL TGFß2; for EC50: Homo sapiens, total C7 AlphaLISA, 48 h, mean ± SD, read-out: Increase in C7 levels EC50(rel)
Description: (§1) The AlphaLISA assay was developed in-house by using the biotin-conjugated rabbit polyclonal antibody anti-C7 (LSBio LS-298147) and conjugating the acceptor beads (PerkinElmer 6772001) to a monoclonal anti-Collagen type VII antibody produced in mouse, clone LH7.2 (Thermo MA5-13,432). Formulation of the mAb clone LH7.2 was exchanged to PBS and concentrated 5 × by using Amicon® Ultra-0.5 centrifugal filters up to 1 mg/ml. The conjugation procedure was carried out according to the protocol provided by PerkinElmer.
(§2) For compound treatment in RDEB patient-derived transformed keratinocytes, 5,000 cells were plated in 20 µL of supplemented KGM media containing 20 ng/mL TGFβ2 (SIGMA GF113) without GA-1000 in 384-well cell culture plates (Greiner 781098). The day after, 5 µL of test compounds prepared 5 × in supplemented KGM without GA-1000 were added over cells and incubated for 48 h at 37 °C and 5% CO2. For compound treatment in HEK293^R578X, 10,000 cells were plated in 20 μL of DMEM (High Glucose, 2 mM L-Glutamine, sodium pyruvate, and FBS 10%) in 384-well cell culture plates (Greiner 781,098,). The day after, 5 μL of test compounds prepared 5 × in DMEM complete medium were added over cells and incubated for 48 h at 37 °C and 5% CO2.
(§3) After the treatment process, 2.5 µL of RIPA buffer 10 x (Abcam ab156034) were added over the […] of cells for 20 min at room temperature to obtain a complete cell lysis. Then, 2 μL of sample (i.e., cell lysate with supernatant) were transferred to the AlphaLISA plate (PerkinElmer 6,059,340) containing […] of antibodies mixture ([…] of acceptor Beads-Ab and […] of biotin-rAb) prepared in AlphaLISA buffer 1 x (PerkinElmer AL00F). The reaction was incubated for 90 min at room temperature. Finally, 10 μL of […] of donor beads (PerkinElmer 6760002,) were added to the reaction under subdued light, mixed gently, and incubated for 3 h at room temperature. AlphaLISA signal was detected with an Envision microplate reader (Perkin Elmer) using the following setting: Filter: AlphaScreen, Excitation time: 180 ms, Integration time: 300 ms.
(§4) Statistical analyses were performed using GraphPad Prism v. 7.04 (La Jolla, California). Results are shown as mean ± SD of experimental replicates. Dose–response curves to assess compound treatment effect were plotted in a four-parameter logistic model. Relative EC50, representing the total drug concentration producing a 50% effect, was calculated in the four-parameter logistic equation. Comparisons of collagen protein and mRNA expression in different experimental conditions were made using ANOVA, followed by a post hoc test. statistical significance was considered with p values < 0.05.

[3] = test system: truncated and full-length C7 in RDEB_L1, RDEB_L5 and HEK293^R578X cells; test: Western blot detection of truncated and full-length C7; assay type: cell-based, human; conditions: RDEB_L1 and HEK293^R578X cells; 50 μM compound 7, 50 μM chuangxinmycin, 100 μM 3-methyl-chuangxinmycin
Description: For western blot, RDEB or normal human keratinocytes were lysed in protein extraction buffer (50 mM Tris–HCl [pH 7.5], 100 mM NaCl, 1% Nonidet P-40, and 4 mM EDTA) containing proteinase inhibitors cocktail (Complete Mini, EDTA free; Roche Diagnostics, Mannheim, Germany). Lysates were incubated for 30 min on ice and centrifuged at 15,000 g for 30 min at 4 °C. Supernatants were then collected and concentrated by ultrafiltration using Amicon Ultra columns (10 kDa; Millipore, Ireland). Protein concentrations were measured using the Bradford assay (Bio-Rad, Hercules, CA). For each sample, […] total protein was resolved on NuPAGE Novex 3%–8% Tris–Acetate gel electrophoresis (Invitrogen, Carlsbad, CA) and electrotransferred to nitrocellulose membranes (Invitrogen, Carlsbad, CA). For type VII collagen analysis, blots were probed with a monospecific polyclonal anti-C7 antibody (a generous gift from Dr. A. Nystrom, University of Freiburg). Invitrogen anti-MDH1 polyclonal antibody (PA550446, 1:1000) was used to detect MDH1. Standard antibodies against a reference protein were used as a loading control, as indicated. Visualization of the resulting signal was performed by incubating with horseradish peroxidase (HRP)- conjugated anti-rabbit antibody (Amersham, Burlington, MA) and West Pico Chemiluminescent Substrate (Pierce, Rockford, IL).

[4] = test system: total (truncated + full length) C7 in RDEB_L5 cells; test: AlphaLISA quantification of total C7 in RDEB_L5 cells; assay type: cell-based, human
Description: as §1, §2, §3, §4

[5] = test system: NHK cells; test: Cytotoxicity, ATP levels, normal human keratinocytes (NHK); assay type: cell-based; conditions: NHK cells, ATP levels, at 50 µM
Description: (§5) The viability of RDEB patient-derived cell lines or NHK was evaluated by measuring the ATP levels as an indirect readout of the potential cytotoxicity effect of compounds. Cells were plated and treated exactly with the same conditions as those followed in the AlphaLISA assay, described above. To measure ATP levels, cells were processed using the ATPlite™ 1step luminescence-based assay (PerkinElmer 6,016,731), following the manufacturer’s protocol. 25 μL of ATPlite™ reagent was added directly over cells and plates were covered with a sealing film and shaken for 25 min using a microtiter plate shaker. Luminescence was measured in a Luminoskan Ascent luminometer (Thermo Fisher Scientific). 10 μM of Staurosporine was used as a reference compound and control for the total cytotoxicity.

[6] = test system: total C7 in HEK293^R578X cells; test: AlphaLISA quantification of total C7 in recombinant HEK293^R578X cells; assay type: cell-based, human; conditions: for Increase in C7 levels Emax, % vs baseline: at 100 µM
Description: as §1, §2, §3, §4

[7] = test system: BZD; test: Selectivity panel (Eurofins): benzodiazepine receptor BZD; assay type: binding; conditions: Table 5
[8] = molecular target: T1, SAPK2α (Homo sapiens, UniProt Q16539); test: Selectivity panel (Eurofins): p38/SAPK2α kinase; assay type: biochemical; conditions: Table 5, read-out: Selectivity % inhibition, SAPK2α
T1 construct: Eurofins Pharma Discovery Services

[9] = molecular target: T2, A2A (Homo sapiens, UniProt P29274); test: Selectivity panel (Eurofins): A2A adenosine receptor; assay type: binding; conditions: Table 5, read-out: Selectivity % inhibition, A2A
T2 construct: Eurofins Pharma Discovery Services

[10] = Cytotoxicity, ATP levels, normal human keratinocytes (NHK); assay type: cell-based; conditions: human, normal human keratinocytes (NHK); NHK cells, ATP levels; read-out: Cytotox. IC50
Description: as §5

T1 sequence (Q16539 whole entry): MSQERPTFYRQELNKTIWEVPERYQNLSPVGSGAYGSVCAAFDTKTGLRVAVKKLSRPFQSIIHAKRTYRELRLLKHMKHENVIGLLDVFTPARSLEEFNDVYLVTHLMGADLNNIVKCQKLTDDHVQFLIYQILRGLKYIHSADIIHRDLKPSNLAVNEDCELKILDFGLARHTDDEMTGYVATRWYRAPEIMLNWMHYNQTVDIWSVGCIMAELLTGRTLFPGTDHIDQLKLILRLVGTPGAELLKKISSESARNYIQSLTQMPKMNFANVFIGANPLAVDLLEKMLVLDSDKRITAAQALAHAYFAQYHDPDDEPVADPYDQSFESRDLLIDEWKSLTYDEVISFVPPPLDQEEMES
T2 sequence (P29274 whole entry): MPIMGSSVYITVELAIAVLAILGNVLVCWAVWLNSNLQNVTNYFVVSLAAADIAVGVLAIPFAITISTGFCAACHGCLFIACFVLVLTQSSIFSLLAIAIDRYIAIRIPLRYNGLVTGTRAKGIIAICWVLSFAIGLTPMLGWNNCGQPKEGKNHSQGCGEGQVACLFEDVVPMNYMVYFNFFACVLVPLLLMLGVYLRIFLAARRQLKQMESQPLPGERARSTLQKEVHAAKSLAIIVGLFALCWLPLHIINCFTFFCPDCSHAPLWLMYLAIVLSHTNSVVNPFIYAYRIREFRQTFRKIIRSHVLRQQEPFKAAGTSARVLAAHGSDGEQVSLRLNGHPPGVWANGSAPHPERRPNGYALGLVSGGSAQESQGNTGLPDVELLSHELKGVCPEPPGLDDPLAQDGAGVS

C[C@H]1c2c[nH]c3cccc(c23)S[C@H]1C(=O)O [Chuangxinmycin, chuangxinmycin]
modulation of GO terms related to NMD, readthrough, translation and unfolded protein response [1]: Neither compound 1 nor chuangxinmycin nor 3-methyl-chuangxinmycin showed any impact on these pathways
Increase in C7 levels Emax, % vs baseline ([2]; RDEB_L1 cells, at 50 µM): 22 ± 3 at 50 % vs baseline
C7 products induced, western blot [3]: partially upregulated full-length C7

Nc1ncc(-c2ccc3cnn(CCO)c3c2)nc1C(=O)NC1C2CC3CC1CC(O)(C3)C2 (centres unmarked) [Compound 3]
EC50 ([2]; RDEB_L1 cells): 1.9 ± 0.12 µM
Increase in C7 levels Emax, % vs baseline ([2]; RDEB_L1 cells, at 3.1 µM): 2083 ± 29 at 3.1 % vs baseline
EC50 ([4]; Homo sapiens, total C7 AlphaLISA, 48 h, 20 ng/mL TGFß2, relative EC50, mean ± SD, read-out: Increase in C7 levels EC50): 3.1 ± 0.008 µM
Increase in C7 levels Emax, % vs baseline ([4]; at 1.25 µM, 20 ng/mL TGFß2): 717 ± 229 at 1.25 % vs baseline
Cytotox. % inhibition of viability [5]: 58% ± 13 at 50 (n=2)

CC1(C)c2c[nH]c3cccc(c23)S[C@H]1C(=O)O [3-methyl chuangxinmycin, 3-methyl-chuangxinmycin]
modulation of GO terms related to NMD, readthrough, translation and unfolded protein response [1]: Neither compound 1 nor chuangxinmycin nor 3-methyl-chuangxinmycin showed any impact on these pathways
EC50 ([2]; RDEB_L1 cells): 42 µM
Increase in C7 levels Emax, % vs baseline ([2]; RDEB_L1 cells, at 100 µM): 105 ± 13 at 100 % vs baseline
EC50 ([6]; Homo sapiens, total C7 AlphaLISA, 48 h, relative EC50, mean ± SD, read-out: Increase in C7 levels EC50): 4.6 µM
Increase in C7 levels Emax, % vs baseline [6]: 58 at 100 % vs baseline
C7 products induced, western blot [3]: partially upregulated full-length C7

Nc1cnc(-c2ccncc2)c(-c2cccc(F)c2)n1 [Compound 10]
Selectivity % inhibition, BZD ([7]; at 3 μM): 0%
Selectivity % inhibition, BZD ([7]; at 10 μM): 0%
Selectivity % inhibition, BZD ([7]; at 30 μM): 9%
inhibition at 3 µM ([8]; at 3 μM): 36%
inhibition at 10 µM ([8]; at 10 μM): 162%
inhibition at 30 µM ([8]; at 30 μM): 88%
Increase in C7 levels Emax, % vs baseline ([2]; Table 5 SAR, at 50 μM): 2.1 ± 16 at 50 % vs baseline
inhibition at 3 µM ([9]; at 3 μM): 104%
inhibition at 10 µM ([9]; at 10 μM): 103%
inhibition at 30 µM ([9]; at 30 μM): 104%

C#Cc1nc(-c2ccncc2)c(-c2ccco2)nc1N [Compound 8]
modulation of GO terms related to NMD, readthrough, translation and unfolded protein response [1]: modulating genes specifically related to cytoplasmic translation and the ribosome
EC50 ([2]; RDEB_L1 cells): 40 ± 13 µM
Increase in C7 levels Emax, % vs baseline ([2]; RDEB_L1 cells, at 100 µM): 86 ± 13.9 at 100 % vs baseline
Increase in C7 levels Emax, % vs baseline [6]: 10± 13 at 100 % vs baseline
IC50 [10]: 31 ± 4.1 µM
